Results published in patent US20250243210A1, “CRBN E3 LIGASE LIGAND COMPOUND, PROTEIN DEGRADER DEVELOPED BASED THEREON AND THEIR APPLICATIONS” (GLUETACS THERAPEUTICS (SHANGHAI) CO., LTD., priority 2021, published 2025).

Assays:
Assay type in all cases: cell-based
[1] = system: SU-DHL-6; experiment: CCK-8 tumor cell proliferation, SU-DHL-6; conditions: Homo sapiens, SU-DHL-6, 72 h, read-out: IC50 for inhibiting the proliferation of tumor cells, SU-DHL-6
Description: (§1) Determination of half inhibitory concentration (IC50) of the compounds against tumor cells:
(§2) The tumor cells used herein were cultured in a cell culture medium listed in table 6 at 37° C. in an incubator with 5% CO2.
(§3) After the cells were treated with the compounds of the present disclosure for a period of time (the treatment times listed in Table 7), the cell viability detection reagent was added to the culture medium for cell viability assessment according to the instructions provided with the CCK-8 kit. […] The growth inhibition of the compounds of the present disclosure on cells was plotted by Prism Graphpad software, and the IC50 values of the compounds of the present disclosure were calculated therefrom.

[2] = system: Daudi; experiment: CCK-8 tumor cell proliferation, Daudi; conditions: Homo sapiens, 96 h, read-out: IC50 for inhibiting the proliferation of tumor cells, Daudi
Description: as §1, §2, §3

[3] = system: Kasumi-1; experiment: CCK-8 tumor cell proliferation, Kasumi-1; conditions: Homo sapiens, Kasumi-1, 72 h, read-out: IC50 for inhibiting the proliferation of tumor cells, Kasumi-1
Description: as §1, §2, §3

[4] = system: TMD8; experiment: CCK-8 tumor cell proliferation, TMD8; conditions: Homo sapiens, TMD8, 72 h, read-out: IC50 for inhibiting the proliferation of tumor cells, TMD8
Description: as §1, §2, §3

| Compound | IC50 [1] [nM] | IC50 [2] [nM] | IC50 [3] [nM] | IC50 [4] [nM] |
| --- | --- | --- | --- | --- |
| Cc1nc(Nc2ncc(C(=O)Nc3c(C)cccc3Cl)s2)cc(N2CCC(CN3C4CCC3CN(c3ccc5c(c3)C(=O)N(C3CCC(=O)NC3=O)C5=O)C4)CC2)n1 (stereo not drawn) [GT-03632, N-(2-chloro-6-methylphenyl)-2-((6-(4-((3-(2-(2,6-dioxopiperidin-3-yl)-1,3-dioxoisoindolin-5-yl)-3,8-diazabicyclo[3.2.1]octan-8-yl)methyl)piperidin-1-yl)-2-methylpyrimidin-4-yl)amino)thiazole-5-carboxamide] | ≤ 50 | 50 to 100 | ≤ 50 |  |
| Cc1nc(Nc2ncc(C(=O)Nc3c(C)cccc3Cl)s2)cc(N2CCC(CN3C4CC3CN(c3cc5c(cc3F)C(=O)N(C3CCC(=O)NC3=O)C5=O)C4)CC2)n1 (stereo not drawn) [GT-03538, N-(2-chloro-6-methylphenyl)-2-((6-(4-((3-(2-(2,6-dioxopiperidin-3-yl)-6-fluoro-1,3-dioxoisoindolin-5-yl)-3,6-diazabicyclo[3.1.1]heptan-6-yl)methyl)piperidin-1-yl)-2-methylpyrimidin-4-yl)amino)thiazole-5-carboxamide] | ≤ 50 | 100 to 500 | 100 to 500 | ≤ 50 |
| Cc1nc(Nc2ncc(C(=O)Nc3c(C)cccc3Cl)s2)cc(N2CCN(CCO)CC2)n1 [Dasatinib, reference compound] | ≤ 50 | 100 to 500 | ≤ 50 | ≤ 50 |
| Cc1nc(Nc2ncc(C(=O)Nc3c(C)cccc3Cl)s2)cc(N2CCC(CN3C4CC3CN(c3ccc5c(c3)C(=O)N(C3CCC(=O)NC3=O)C5=O)C4)CC2)n1 (stereo not drawn) [GT-03631, N-(2-chloro-6-methylphenyl)-2-((6-(4-((3-(2-(2,6-dioxopiperidin-3-yl)-1,3-dioxoisoindolin-5-yl)-3,6-diazabicyclo[3.1.1]heptan-6-yl)methyl)piperidin-1-yl)-2-methylpyrimidin-4-yl)amino)thiazole-5-carboxamide] | ≤ 50 | 100 to 500 | 100 to 500 |  |
| Cc1nc(Nc2ncc(C(=O)Nc3c(C)cccc3Cl)s2)cc(N2CCC(CN3C4CCC3CN(c3cc5c(cc3F)C(=O)N(C3CCC(=O)NC3=O)C5=O)C4)CC2)n1 (stereo not drawn) [GT-03537, N-(2-chloro-6-methylphenyl)-2-((6-(4-((3-(2-(2,6-dioxopiperidin-3-yl)-6-fluoro-1,3-dioxoisoindolin-5-yl)-3,8-diazabicyclo[3.2.1]octan-8-yl)methyl)piperidin-1-yl)-2-methylpyrimidin-4-yl)amino)thiazole-5-carboxamide] | ≤ 50 | 100 to 500 | 50 to 100 | ≤ 50 |
